What was measured:
GII.27 P domain = target: T1, GII.27 P domain (Norovirus GII, UniProt A0A2H4Y8Z8); assay: X-ray co-crystal structure, […] A; assay type: binding; conditions: co-crystallized with 30-60 molar excess; one molecule per dimer, site at dimer interface: N354, R355, D384 of one monomer, K444, G446, Y447 of the other
T1 construct: protruding (P) domain of the capsid protein, dimer

GX P domain (NPIH26) = target: T2, GX P domain (NPIH26) (Bat norovirus, UniProt A0A2S1TZT6); assay: X-ray co-crystal structure, […] A; assay type: binding; conditions: co-crystallized with 30-60 molar excess; two fucose molecules per P domain dimer; site E332, H334, E349, T433 of one monomer; pH 6.5
T2 construct: gene ORF2; protruding (P) domain of the capsid protein, dimer

| SMILES | X-ray co-crystal structure, 1.76 A (GII.27 P domain) | X-ray co-crystal structure, 1.55 A (GX P domain (NPIH26)) |
| --- | --- | --- |
| CC(=O)N[C@H]1[C@@H](O[C@H]2[C@@H](O)[C@@H](CO)OC(O)[C@@H]2O[C@@H]2O[C@@H](C)[C@@H](O)[C@@H](O)[C@@H]2O)O[C@H](CO)[C@H](O)[C@@H]1O (stereo partly drawn) [A-trisaccharide, α-L-fucose-(1-2)-α-D-galactose-(3-1)-2-N-acetyl-α-D-galactosamine] | a single A-trisaccharide molecule bound to the P domain dimer |  |
| C[C@@H]1OC(O)[C@@H](O)[C@H](O)[C@@H]1O (some centres unmarked) [FUC, fucose] |  | The GX P domain held the fucose molecules with six direct hydrogen bonds |
